Here are results for 21 compounds from US20150175599A1, “FAAH Inhibitors” (Ironwood Pharmaceuticals, Inc., priority 2010, published 2015).

This assay has as its target T1, FAAH (Rattus norvegicus, UniProt P97612).
T1 construct: For the assay of FAAH activity in rat brain membrane (RBM) homogenates; tissue Charles River (animals); host or cells: rat whole brain, membrane fraction
T1 sequence (P97612 1-579): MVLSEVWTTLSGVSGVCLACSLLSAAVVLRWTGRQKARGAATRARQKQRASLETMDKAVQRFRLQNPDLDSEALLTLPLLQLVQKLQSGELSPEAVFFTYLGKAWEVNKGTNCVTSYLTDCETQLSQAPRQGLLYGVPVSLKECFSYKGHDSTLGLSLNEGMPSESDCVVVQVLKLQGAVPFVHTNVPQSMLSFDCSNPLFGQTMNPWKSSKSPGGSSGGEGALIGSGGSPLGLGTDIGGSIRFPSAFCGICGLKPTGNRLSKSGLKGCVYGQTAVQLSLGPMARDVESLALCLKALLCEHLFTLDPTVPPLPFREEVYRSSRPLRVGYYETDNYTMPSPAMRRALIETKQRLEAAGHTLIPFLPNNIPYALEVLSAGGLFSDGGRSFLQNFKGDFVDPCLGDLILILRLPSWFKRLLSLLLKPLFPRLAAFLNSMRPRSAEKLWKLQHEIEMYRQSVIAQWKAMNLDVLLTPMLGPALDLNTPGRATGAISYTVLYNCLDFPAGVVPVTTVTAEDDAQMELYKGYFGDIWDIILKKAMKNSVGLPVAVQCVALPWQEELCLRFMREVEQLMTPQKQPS
The assay is described as follows: FAAH inhibition, rat brain membrane homogenate assay. The format is biochemical. To be noted: rat brain homogenate; average activity; read-out: Rat Brain Extract FAAH IC50. How it is done:
Adult rats (Charles River CD strain, female, 200 g) were anaesthetized with isofluorane and rapidly decapitated. Each brain was quickly removed and chilled in tubes (3 brains per tube) on ice. About 25 mL of “homogenization buffer” (20 mM HEPES buffer, pH 7.0, with 1 mM MgCl2) was added to 15 to 20 g of brain. The brains were homogenized on ice for 1 minute using an Omni GLH homogenizer (Omni International, Marietta, Ga.). The homogenates were then transferred to three centrifuge tubes and centrifuged at 36,500 g for 20 minutes at 4° C. The supernatant was discarded and each pellet was re-suspended in 25 mL homogenization buffer. The re-suspended material was again centrifuged (36,500 g, 20 minutes at 4° C.). Pellets were combined by re-suspension in 10 mL of homogenization buffer and incubated in a 37° C. water bath for 15 minutes. The tubes were then placed on ice for 5 minutes followed by centrifugation at 36,500 g for 20 minutes at 4° C. The supernatant was discarded and the membrane pellets were then re-suspended in 40 mL of “re-suspension buffer” (50 mM Tris-HCl buffer, pH 7.4, containing 1 mM EDTA and 3 mM MgCl2). A Bradford Protein assay was performed to determine protein concentration. The protein was aliquotted into screw cap Cryo tubes each containing −400 μL, flash-frozen in liquid nitrogen and stored at −80° C. until used for the assay. A similar protocol was used to obtain brain membrane homogenates from mice
FAAH activity was assayed in the respective homogenates described herein (Rat brain, Mouse brain or Human brain) with certain of the exemplary compounds described above using a modification of the method of Omeir et al. (1995 Life Sci. 56:1999) and Fowler et al. (1997 J. Pharmacol. Exp. Ther. 283:729). For the assay of FAAH activity in rat brain membrane (RBM) homogenates, RBM homogenates (7 μg protein in 20 μL final volume of 10 mM Tris pH 6.5) were mixed with 180 μL of a mixture of the following: […] unlabelled anandamide (AEA), 0.03 Ci radio labeled anandamide [ethanolamine 1-^3H](40-60 Ci/mmol; product number ART-626, American Radiolabelled Chemicals, St. Louis, Mo.), 1 mg/mL Bovine Serum Albumin (fatty acid-free BSA, electrophoresis grade, Sigma, St. Louis, Mo.), 10 mM Tris-HCl (pH 6.5), and 1 mM EDTA in the presence and absence of test compounds (vehicle was DMSO at a final concentration of 1%) and incubated for 10 minutes at 37° C. Samples were placed on ice to terminate the reactions.
The ^3H-ethanolamine product and un-reacted ^3H-anandamide substrate were then separated by either: (1) using chloroform/methanol extraction or (2) passing the reaction mixture through a glass fiber filter containing activated charcoal. Samples were extracted with chloroform/methanol by adding 0.4 mL of chloroform/methanol (1:1 v/v), vigorously mixing the samples, and separating the aqueous and organic phases by centrifugation. Radioactivity (corresponding to FAAH-catalyzed breakdown of ^3H-anandamide) found in aliquots (0.2 mL) of the aqueous phase was determined by liquid scintillation counting with quench correction. IC50 values were determined as described by Jonsson et al. (2001 Br. J Pharmacol. 133:1263). Alternatively, reactions were purified using a modification of the solid-phase extraction method described by Wilson et al (2003 Anal. Biochem. 318: 270). This method was modified as follows: after reactions were incubated at 37° C. for 10 minutes and chilled on ice, the reaction mixtures were acidified by adding 10 μL of sodium phosphate solution[0.5M (pH 2.0)]. Next, 90 μL aliquots of the acidified reaction mixtures were applied to activated charcoal (that had been previously washed with methanol as described by Wilson et al. (supra)) containing 80 μL of water on top of a glass fiber filter, centrifuged, and the radioactivity in the eluate was counted as described previously by Wilson et al. (supra). […]
Regarding `Cc1c(C(=O)C(=O)Nc2cccc(Cl)c2)c2cc(O)ccc2n1Cc1ccc(Cl)cc1` [Compound 71, 2-(1-(4-chlorobenzyl)-5-hydroxy-2-methyl-1H-indol-3-yl)-N-(3-chlorophenyl)-2-oxoacetamide], the IC50 (commonly the concentration needed to halve the response being measured) fell in the range of 100 to 1000 nM. Regarding `COc1cc(NC(=O)C(=O)c2c(C)n(Cc3ccc(Cl)cn3)c3ccccc23)ccn1` [Compound 68, 2-(1-((5-chloropyridin-2-yl)methyl)-2-methyl-1H-indol-3-yl)-N-(2-methoxypyridin-4-yl)-2-oxoacetamide], the half-inhibitory concentration (IC50) is under 100 nM.

Consider `COc1ccc2c(c1)c(C(=O)C(=O)Nc1ccnc(OC)c1F)c(C)n2Cc1ccc(Cl)cc1` [Compound 53, 2-(1-(4-chlorobenzyl)-5-methoxy-2-methyl-1H-indol-3-yl)-N-(3-fluoro-2-methoxypyridin-4-yl)-2-oxoacetamide], for which the IC50 is under 100 nM.

In the case of `COc1cc(NC(=O)C(=O)c2c(C)n(Cc3ncc(F)cc3F)c3cc(F)c(OC)cc23)ccn1` [Compound 101, 2-(1-((3,5-difluoropyridin-2-yl)methyl)-6-fluoro-5-methoxy-2-methyl-1H-indol-3-yl)-N-(2-methoxypyridin-4-yl)-2-oxoacetamide], the half-maximal inhibitory concentration (IC50) is under 100 nM. Turning to `COc1ccc2c(c1)c(C(=O)C(=O)Nc1cc(OC)ncc1F)c(C)n2Cc1ccc(Cl)cc1` [Compound 54, 2-(1-(4-chlorobenzyl)-5-methoxy-2-methyl-1H-indol-3-yl)-N-(5-fluoro-2-methoxypyridin-4-yl)-2-oxoacetamide], the IC50 was under 100 nM.

As to `COc1cc(NC(=O)C(=O)c2c(C)n(Cc3ccc(F)cc3F)c3cc(F)c(OC)cc23)ccn1` [Compound 14, 2-(1-(2,4-difluorobenzyl)-6-fluoro-5-methoxy-2-methyl-1H-indol-3-yl)-N-(2-methoxypyridin-4-yl)-2-oxoacetamide], the IC50 is under 100 nM.

Take `COc1cc(NC(=O)C(=O)c2c(C)n(Cc3ccc(Cl)cc3)c3ccc(N(C)C)cc23)ccn1` [Compound 17, 2-(1-(4-chlorobenzyl)-5-(dimethylamino)-2-methyl-1H-indol-3-yl)-N-(2-methoxypyridin-4-yl)-2-oxoacetamide]: the IC50 is under 100 nM.

Regarding `COc1cc(NC(=O)C(=O)c2c(C)n(Cc3ccc(Cl)cc3)c3ccc(OC)c(F)c23)ccn1` [Compound 59, 2-(1-(4-chlorobenzyl)-4-fluoro-5-methoxy-2-methyl-1H-indol-3-yl)-N-(2-methoxypyridin-4-yl)-2-oxoacetamide], the IC50 is under 100 nM.

On to `COc1ccc2c(c1)c(C(=O)C(=O)Nc1ccnc(O)c1)c(C)n2Cc1ccc(Cl)cc1` [Compound 50, 2-(1-(4-chlorobenzyl)-5-methoxy-2-methyl-1H-indol-3-yl)-N-(2-hydroxypyridin-4-yl)-2-oxoacetamide], for which the IC50 is 1000 to 10000 nM. To `COc1cc(NC(=O)C(=O)c2c(C)n(Cc3ccc(Cl)cc3)c3cc(F)c(OC)cc23)ccn1` [Compound 72, 2-(1-(4-chlorobenzyl)-6-fluoro-5-methoxy-2-methyl-1H-indol-3-yl)-N-(2-methoxypyridin-4-yl)-2-oxoacetamide] belongs under 100 nM; to `COc1cc(NC(=O)C(=O)c2c(C)n(Cc3ccc(Cl)cc3)c3cc(Cl)c(OC)cc23)ccn1` [Compound 55, 2-(6-chloro-1-(4-chlorobenzyl)-5-methoxy-2-methyl-1H-indol-3-yl)-N-(2-methoxypyridin-4-yl)-2-oxoacetamide], under 100 nM. Turning to `COc1cc(NC(=O)C(=O)c2c(C)n(Cc3ccc(Cl)cc3)c3ccc(N)c(Cl)c23)ccn1` [Compound 73, 2-(5-amino-4-chloro-1-(4-chlorobenzyl)-2-methyl-1H-indol-3-yl)-N-(2-methoxypyridin-4-yl)-2-oxoacetamide], the IC50 was in the range of 100 to 1000 nM.

With `COc1ccc2c(c1)c(C(=O)C(=O)Nc1ccnc(OC)c1Cl)c(C)n2Cc1ccc(Cl)cc1` [Compound 52, N-(3-chloro-2-methoxypyridin-4-yl)-2-(1-(4-chlorobenzyl)-5-methoxy-2-methyl-1H-indol-3-yl)-2-oxoacetamide], the IC50 is over 10000 nM. Take `COc1cc(NC(=O)C(=O)c2c(C)n(Cc3ncc(Cl)cc3Cl)c3ccc(C)cc23)ccn1` [Compound 30, 2-(1-((3,5-dichloropyridin-2-yl)methyl)-2,5-dimethyl-1H-indol-3-yl)-N-(2-methoxypyridin-4-yl)-2-oxoacetamide]: the IC50 was under 100 nM. To `COc1cc(NC(=O)C(=O)c2c(C)n(Cc3ccc(Cl)cc3)c3ccc(CN(C)C)cc23)ccn1` [Compound 26, 2-(1-(4-chlorobenzyl)-5-((dimethylamino)methyl)-2-methyl-1H-indol-3-yl)-N-(2-methoxypyridin-4-yl)-2-oxoacetamide] belongs 100 to 1000 nM; to `COc1cc(NC(=O)C(=O)c2c(C)n(Cc3ccc(Cl)cn3)c3cc(OC)c(Cl)cc23)ccn1` [Compound 67, 2-(5-chloro-1-((5-chloropyridin-2-yl)methyl)-6-methoxy-2-methyl-1H-indol-3-yl)-N-(2-methoxypyridin-4-yl)-2-oxoacetamide], under 100 nM; to `COc1cc(NC(=O)C(=O)c2c(C)n(Cc3ncc(Cl)cc3Cl)c3cc(F)c(OC)cc23)ccn1` [Compound 13, 2-(1-((3,5-dichloropyridin-2-yl)methyl)-6-fluoro-5-methoxy-2-methyl-1H-indol-3-yl)-N-(2-methoxypyridin-4-yl)-2-oxoacetamide], under 100 nM. To `COc1cc(NC(=O)C(=O)c2c(C)n(Cc3ccc(Cl)cn3)c3cc(Cl)c(OC)cc23)ccn1` [Compound 60, 2-(6-chloro-1-((5-chloropyridin-2-yl)methyl)-5-methoxy-2-methyl-1H-indol-3-yl)-N-(2-methoxypyridin-4-yl)-2-oxoacetamide] belongs under 100 nM. In the case of `COc1cc(NC(=O)C(=O)c2c(C)n(Cc3ccc(Cl)cc3)c3ccc(OC)c(Cl)c23)ccn1` [Compound 58, 2-(4-chloro-1-(4-chlorobenzyl)-5-methoxy-2-methyl-1H-indol-3-yl)-N-(2-methoxypyridin-4-yl)-2-oxoacetamide], the IC50 was in the range of 100 to 1000 nM.

For the compound `COc1cc(NC(=O)C(=O)c2c(C)n(Cc3ccc(Cl)cn3)c3ncc(C)cc23)ccn1` [Compound 75, (1-((5-chloropyridin-2-yl)methyl)-2,5-dimethyl-1H-pyrrolo[2,3-b]pyridin-3-yl)-N-(2-methoxypyridin-4-yl)-2-oxoacetamide], the IC50 was under 100 nM. Regarding `COc1ccc2c(c1)c(C(=O)C(=O)Nc1ccnc(OC)c1)c(C)n2Cc1ccncc1` [Compound 16, 2-(5-methoxy-2-methyl-1-(pyridin-4-ylmethyl)-1H-indol-3-yl)-N-(2-methoxypyridin-4-yl)-2-oxoacetamide], the IC50 fell in the range of 100 to 1000 nM.
